Experimental data as given in patent US5750754A, “Heterocyclic compounds” (Zeneca Limited, priority 1993, dated 1998).
Counter-ions that a name gives are not always drawn.

Key:
[1] = biological target: T1, human, citrated, platelet-rich plasma (Homo sapiens, UniProt P05106+P08514); assay: Test (a): inhibition of ADP stimulated platelet aggregation (Born); type: cell-based; conditions: ADP induced aggregation of human platelet-rich plasma; read-out: Test (a): pA2 value indicating potency of platelet aggregation inhibition (converted)
T1 construct: aggregating human, citrated, platelet-rich plasma; endogenous in cells; host or cells: human platelets in citrated platelet-rich plasma
From the text: (i) aggregating human, citrated, platelet-rich plasma by addition of adenosine diphosphate so as to generate a dose-response curve;
(ii) generating a dose-response curve for ADP stimulated platelet aggregation in the presence of increasing amounts of a test compound (generally in the range 10-^5 M to 10-^10 M); and
(iii) calculating a pA2 value indicating potency of platelet aggregation inhibition for the test compound, averaged over several concentrations, from the calculated 50% response value for ADP aggregation in the presence and absence of the test compound.

[2] = biological target: T2, purified human platelet fibrinogen receptor (GPIIb/IIIa) (Homo sapiens, UniProt P05106+P08514); assay: Test (b): GPIIb/IIIa ELISA, inhibition of biotinylated fibrinogen binding; conditions: purified human platelet GPIIb/IIIa, ELISA; read-out: Test (b): pIC50 (-log(IC50)), 50% inhibition of biotinylated fibrinogen binding to GPIIb/IIIa (converted)
T2 construct: is isolated from human platelet lysates; from tissue
Procedure: (i) Preparation of human platelet lysates.
Platelet rich plasma (PRP) is harvested by centrifugation (1000 rpm, 15 mins) of whole blood anticoaoulated with acid citrate dextrose (trisodium citrate 85 mM, citric acid 70 mM, d-glucose 110 mM) 1 part to 6 parts blood. Prostacyclin (PGI2, 1 μM) is added to the PRP before centrifugation (2400 pm, 15 mins) and the resulting pellet is resuspended in modified Tyrodes' solution (NaCl 130 mM, KCl 26 mM, NaHCO3 12 mM, NaH2 PO4 0.5 mM, MgCl2 1 mM, CaCl2 20 mM, Glucose 12 mM, HEPES 5 mM) containing bovine serum albumin 3.5 g/L, PGI2 1 μM and hirudin 0.5 U/ml. The platelet suspension is centrifuged (2400 rpm, 15 mins) and the resultant pellet resuspended in 500 μl of lysis buffer (octyl glucoside 50 mM, HEPES 10 mM, NaCl 150 mM, CaCl2 1 mM, MgCl2 1 mM, PMSF 1 mM, NEM 10 mM, leupeptin 0.1 mM), agitated at 4° C. for 15 minutes then centrifuged at 24000 rpm, 15 mins. The supernatant is stored at 4° C. and the pellet re-suspended in 500 μl of lysis buffer. The centrifugation process is repeated a further 3 tlimes, the pooled supernatants being stored at -70° C.
(ii) Receptor purification.
GP Ilb/Ila is isolated from human platelet lysates using a 2 ml peptide (KYGRGDS) coupled CNBr activated Sepharose affinity column. A 1.5 ml volume of platelet lysate is placed on the column and allowed to stand overnight at 4° C. Buffer (30 mls, octyl gluicoside 25 mM, HEPES 10 mM, NaCl 150 mM, CaCl2 1 mM, MgCl2 1 mM, PMSF 1 mM, NEM 10 mM, leupeptin 0.1 mM) is passed through the column and 2 ml fractions are collected throughout. GPIIb/IIIa is eluted with 12 mls of buffer containing HHLGGAKQAGDV (2 mg/ml, pH 7.5), the column is washed using 4 mls buffer and the remaining GPIIb/IIIa eluted using 12 mls buffer containing GRGDSPG (1 mg/ml pH 7.5). The column is finally washed using 20 mls of buffer and can be used for up to three such preparations. Fractions containing FGPIIb/IIIa are identified using gel electrophoresis and immunoblotting, pooled and stored at -70° C.
96 well microtitre plates are coated with 100 μl purified human platelet fibrinogen receptor (GPIIb/IIIa) diluted in coating buffer (Tris-HCl 20 mM, NaCl 150 mM, CaCl2 1 mM, pH 7.4) and left overnight at 4° C. The plates are washed using washing buffer (Tris-HCl 50 mM, NaCl 100 mM, CaCl2 2 mM, pH 7.4) and non-specific binding, blocked by the addition of 200 μl 2% BSA (2 hours, 30° C.). The plates are washed prior to incubation (2 hours, 30° C.) with 100 μl biotinylated fibrinogen ([…]) containing either vehicle or test compound. The plates are washed, incubated with streptavidin (5 μg/ml, 1 hour, ambient temperature), then washed again before the addition of 100 μl biotinylated horse radish peroxidase (0.1 μg/ml, 1 hour, ambient temperature). The plates are then washed and equal volumes of peroxidase substrate (3, 5, tetramethyl benzidine 0.4 g/l) and H2 O2 (0.02%) are mixed together immediately before addition of 150 μl to each well. Colour is allowed to develop for 10-15 mins before optical densities are read at 650 nm.
The concentration of compound required to cause 50% inhibition of biotinylated fibrinogen binding, is calculated and expressed as a pIC50 (-log(IC50)).

T2 sequence (P08514 32-887 limits assumed): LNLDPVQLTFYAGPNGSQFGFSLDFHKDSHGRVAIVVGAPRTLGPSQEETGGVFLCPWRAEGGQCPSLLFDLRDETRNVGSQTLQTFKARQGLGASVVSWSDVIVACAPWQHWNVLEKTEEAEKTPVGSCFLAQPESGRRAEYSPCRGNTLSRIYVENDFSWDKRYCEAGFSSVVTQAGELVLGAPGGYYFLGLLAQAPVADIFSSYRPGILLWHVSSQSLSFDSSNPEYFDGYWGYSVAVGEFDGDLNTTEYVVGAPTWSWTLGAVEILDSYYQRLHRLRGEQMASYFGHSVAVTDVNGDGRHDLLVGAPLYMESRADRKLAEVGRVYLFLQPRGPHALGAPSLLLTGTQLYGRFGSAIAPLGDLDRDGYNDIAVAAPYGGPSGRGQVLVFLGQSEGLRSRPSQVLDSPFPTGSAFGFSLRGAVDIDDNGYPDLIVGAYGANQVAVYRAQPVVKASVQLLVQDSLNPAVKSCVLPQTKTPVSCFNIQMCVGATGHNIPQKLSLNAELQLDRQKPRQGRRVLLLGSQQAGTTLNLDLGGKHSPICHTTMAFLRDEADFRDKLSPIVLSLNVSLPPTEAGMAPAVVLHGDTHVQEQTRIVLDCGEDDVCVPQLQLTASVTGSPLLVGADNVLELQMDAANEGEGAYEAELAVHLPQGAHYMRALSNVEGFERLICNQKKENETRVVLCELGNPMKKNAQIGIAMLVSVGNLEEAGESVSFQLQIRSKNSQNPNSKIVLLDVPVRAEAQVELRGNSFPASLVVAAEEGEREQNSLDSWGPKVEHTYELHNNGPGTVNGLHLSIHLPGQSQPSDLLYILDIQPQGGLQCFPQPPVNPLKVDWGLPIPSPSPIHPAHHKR
T2 sequence (P08514 891-1039 limits assumed): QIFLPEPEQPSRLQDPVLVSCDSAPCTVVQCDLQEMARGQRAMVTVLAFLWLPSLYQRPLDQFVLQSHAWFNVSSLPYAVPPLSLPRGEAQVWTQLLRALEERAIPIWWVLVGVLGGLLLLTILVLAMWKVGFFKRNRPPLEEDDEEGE
T2 sequence (P05106 27-788): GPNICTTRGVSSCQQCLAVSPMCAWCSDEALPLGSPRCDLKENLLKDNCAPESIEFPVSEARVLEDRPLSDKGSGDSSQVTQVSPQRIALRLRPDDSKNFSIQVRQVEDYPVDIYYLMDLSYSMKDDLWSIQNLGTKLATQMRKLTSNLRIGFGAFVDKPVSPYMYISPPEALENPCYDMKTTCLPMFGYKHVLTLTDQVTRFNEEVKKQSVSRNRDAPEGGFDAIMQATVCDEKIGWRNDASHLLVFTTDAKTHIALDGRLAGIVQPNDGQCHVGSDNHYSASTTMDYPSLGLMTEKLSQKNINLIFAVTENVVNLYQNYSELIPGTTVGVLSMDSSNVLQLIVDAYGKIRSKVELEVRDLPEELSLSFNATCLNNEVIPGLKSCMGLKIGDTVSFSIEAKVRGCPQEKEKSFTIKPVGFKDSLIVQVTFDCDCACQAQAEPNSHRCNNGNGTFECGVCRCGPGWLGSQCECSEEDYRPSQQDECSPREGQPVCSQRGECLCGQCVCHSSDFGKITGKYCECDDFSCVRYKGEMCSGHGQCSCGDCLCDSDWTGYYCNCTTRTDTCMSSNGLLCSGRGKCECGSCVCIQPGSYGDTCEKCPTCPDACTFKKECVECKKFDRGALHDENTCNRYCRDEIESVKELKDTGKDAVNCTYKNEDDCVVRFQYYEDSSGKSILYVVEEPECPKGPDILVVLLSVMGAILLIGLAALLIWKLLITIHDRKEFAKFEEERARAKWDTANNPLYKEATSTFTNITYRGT
T1 sequence (P08514 32-887 limits assumed): as the sequence (P08514 32-887 limits assumed) above
T1 sequence (P08514 891-1039 limits assumed): as the sequence (P08514 891-1039 limits assumed) above
T1 sequence (P05106 27-788): as the sequence (P05106 27-788) above

Row | Kb [1] [µM] | IC50 [2] [µM] | SMILES
1 | 5.01 | 15.8 | CCCCS(=O)(=O)Nc1ccc(C(=O)CN2CCN(c3ccncc3)CC2)cc1 [Example 20, N-4-[2-[4-(4-Pyridyl)piperazin-1-yl]acetyl]phenyl-1-butanesulphonamide]
2 | 0.0631 to 0.158 | 0.158 to 0.501 | Cc1ccc(S(=O)(=O)NCc2ccc(C(=O)CN3CCN(c4ccncc4)CC3)cc2)cc1 [Example 21, N-[4-[2-[4-(4-Pyridyl)piperazin-1-yl]acetyl]phenyl]methyl-4-methylphenylsulphonamide]
3 | 0.126 to 0.2 | 3.98 | CCCCS(=O)(=O)NCc1ccc(C(=O)CN2CCN(c3ccncc3)CC2)cc1 [Example 22, N-[4-[2-[4-(4-Pyridyl)piperazin-1-yl]acetyl]phenyl]methyl-1-butanesulphonamide]
4 | 1 | 6.31 to 31.6 | Cc1ccc(S(=O)(=O)NCCc2ccc(C(=O)CN3CCN(c4ccncc4)CC3)cc2)cc1 [Example 23, N-[2-[4-[2-[4-(4-Pyridyl)piperazin-1-yl]acetyl]phenyl]ethyl]-4-methylphenylsulphonamide]
5 | 2 | 31.6 | CCCCS(=O)(=O)NCCc1ccc(C(=O)CN2CCN(c3ccncc3)CC2)cc1 [Example 24, N-[2-[4-[2-[4-(4-Pyridyl)piperazin-1-yl]acetyl]phenyl]ethyl]-1-butanesulphonamide]
6 | 7.94 | 15.8 | COC(=O)c1cc2cc(C(=O)CN3CCN(c4ccncc4)CC3)ccc2o1 [Example 25, Methyl 5-[2-[4-(4-pyridyl)piperazin-1-yl]acetyl]benzofuran-2-carboxylate]
7 | 1.58 | 0.631 | O=C(CN1CCN(c2ccncc2)CC1)c1ccc2oc(C(=O)O)cc2c1 [Example 26, 5-[2-[4-(4-Pyridyl)piperazin-1-yl]acetyl]benzofuran-2-carboxylic acid]
8 | 7.94 | 2.51 | CCOC(=O)C1CCN(C(=O)CN2CCN(c3ccncc3)CC2)CC1 [Example 27, Ethyl 1-[2-[4-(4-pyridyl)piperazin-1-yl]acetyl]piperidin-4-carboxylate]
9 | 20 | 2 | O=C(O)C1CCN(C(=O)CN2CCN(c3ccncc3)CC2)CC1 [Example 28, 1-[2-[4-(4-Pyridyl)piperazin-1-yl]acetyl]piperidin-4-carboxylic acid]
10 | 5.01 | 1.26 | O=C(O)CC1CCN(C(=O)CN2CCN(c3ccncc3)CC2)CC1 [Example 30, 2-[1-[2-[4-(4-Pyridyl)piperazin-1-yl]acetyl]piperidin-4-yl]acetic acid]
11 | 0.2 | 0.0501 | O=C(O)COC1CCN(C(=O)CN2CCN(c3ccncc3)CC2)CC1 [Example 32, 2-[1-[2-[4-(4-Pyridyl)piperazin-1-yl]acetyl]piperidin-4-yloxy]acetic acid]
12 | 0.398 | 0.126 | CCCCS(=O)(=O)N[C@@H](Cc1ccc(OCC2CCN(c3ccncc3)CC2)cc1)C(=O)OC [Example 33, Methyl 2-S-(n-butylsulphonylamino)-3-[4-[1-(4-pyridyl)piperidin-4-yl]methoxyphenyl]propionate]
13 | 0.002 | 0.002 | CCCCS(=O)(=O)N[C@@H](Cc1ccc(OCC2CCN(c3ccncc3)CC2)cc1)C(=O)O [Example 34, 2-S-(n-Butylsulphonylamino)-3-[4-[1-(4-pyridyl)piperidin-4-yl]methoxyphenyl]propionic acid]
14 | 0.398 | 0.0631 | CCCCS(=O)(=O)N[C@@H](Cc1ccc(OCCC2CCN(c3ccncc3)CC2)cc1)C(=O)OC [Example 35, Methyl 2-S-(n-butylsulphonylamino)-3-[4-[2-[1-(4-pyridyl)piperidin-4-yl]ethoxy]phenyl]propionate]
15 | 0.002 | 0.001 | CCCCS(=O)(=O)N[C@@H](Cc1ccc(OCCC2CCN(c3ccncc3)CC2)cc1)C(=O)O [Example 36, 2-S-(n-Butylsulphonylamino)-3-[4-[2-[1-(4-pyridyl)piperidin-4-yl]ethoxy]phenyl]propionic acid]
16 | 2.51 | 0.2 | CCCCS(=O)(=O)N[C@@H](Cc1ccc(OC2CCN(c3ccncc3)CC2)cc1)C(=O)OC [Example 37, Methyl 2-S-(n-butylsulphonylamino)-3-[4-[1-(4-pyridyl)piperidin-4-yl]oxyphenyl]propionate]
17 | 0.0316 | 0.002 | CCCCS(=O)(=O)N[C@@H](Cc1ccc(OC2CCN(c3ccncc3)CC2)cc1)C(=O)O [Example 38, 2-S-(n-Butylsulphonylamino)-3-[4-[1-(4-pyridyl)piperidin-4-yl]oxyphenyl]propionic acid]
18 | 25.1 | 0.251 | O=C(O)C[C@H](NC(=O)CN1CCN(c2ccncc2)CC1)C(=O)N[C@@H](Cc1ccccc1)C(=O)O [Example 39, N-[N-[2-[4-(4-Pyridyl)piperazin-1-yl]acetal]-L-aspartyl]-L-phenylalanine]
19 | > 100 | > 100 | COC(=O)COc1ccc(C(=O)CN2CCN(c3cc(C)nc4ccccc34)CC2)cc1 [Example 41, Methyl 4-[2-[4-(2-methyl-4-quinolinyl)piperazin-1-yl]acetyl]phenoxyacetate]
20 | 50.1 | 6.31 | Cc1cc(N2CCN(CC(=O)c3ccc(OCC(=O)O)cc3)CC2)c2ccccc2n1 [Example 42, 4-[2-[4-(2-Methyl-4-quinolinyl)piperazin-1-yl]acetyl]phenoxyacetic acid]
21 | 39.8 | 3.16 | COC(=O)COc1ccc(C(=O)CN2CCN(c3ccnc4ccccc34)CC2)cc1 [Example 43, Methyl 4-[2-[4-(4-quinolinyl)piperazin-1-yl]acetyl]phenoxyacetate]
22 | 10 | 0.1 | O=C(O)COc1ccc(C(=O)CN2CCN(c3ccnc4ccccc34)CC2)cc1 [Example 44, 4-[2-[4-(4-Quinolinyl)piperazin-1-yl]acetyl]phenoxyacetic acid trifluoroacetate salt]
23 | 3.98 | 0.794 | COC(=O)COc1ccc(C(=O)CN2CCN(c3ccnc4c3CCCC4)CC2)cc1 [Example 45, Methyl 4-[2-[4-(5,6,7,8-tetrahydro-4-quinolinyl)piperazin-1-yl]-acetyl]phenoxyacetate]
24 | 1 | 0.0251 | O=C(O)COc1ccc(C(=O)CN2CCN(c3ccnc4c3CCCC4)CC2)cc1 [Example 46, 4-[2-[4-(5,6,7,8-Tetrahydro-4-quinolinyl)piperazin-1-yl]acetyl]phenoxyacetic acid]
25 | 6.31 | 39.8 | COC(=O)COc1ccc(C(=O)CN2CCN(c3ccncn3)CC2)cc1 [Example 47, Methyl 4-[2-[4-(4-pyrimidinyl)piperazin-1-yl]acetyl]phenoxyacetate]

Row | SMILES | Kb [1] [µM] | IC50 [2] [µM]
26 | O=C(O)C[C@H](NC(=O)CNC(=O)CN1CCN(c2ccncc2)CC1)C(=O)N[C@@H](Cc1ccccc1)C(=O)O [Example 40] | 0.0794 | 0.02
